In US9474780B2, “GIP and GLP-1 co-agonist compounds” (Eli Lilly and Company, priority 2015, dated 2016):
Marks after values point to notes of the source that are not given here.

Key:
[1] = Energy metabolism in DIO mice (indirect calorimetry); format: in vivo, mouse; conditions: SC every three days for 22 days, from week 2, semaglutide 30 nmol/kg
Method: The effects on energy metabolism in DIO mice for compounds of the present invention are evaluated in 26 week old C57/B16 DIO male mice, weighing 43-50 g. Mice are individually housed in a temperature-controlled (24° C.) facility with a 12 hour light/dark cycle (lights on 22:00), and with free access to food TD95217 (Teklad) and water. After 2 weeks acclimation to the facility, mice are randomized to treatment groups (n=6/group) based on body weight so each group has similar starting mean body weight. Animals are placed in a PhenoMaster/LabMaster calorimeter (TSE Systems, Chesterfield, Mo.) for 3 days of acclimation. Vehicle control (20 mM citrate buffer at pH 7.0, 10 ml/kg), compounds of the present invention, or a long-acting GLP1 analogue, semaglutide, (30 nmol/kg) are subcutaneously administered to ad libitum fed DIO mice 30-90 minutes prior to the onset of the dark cycle every three days for 22 days. Heat and respiratory quotient (RER) are measured by indirect calorimetry as described using an open-circuit calorimetry system. RER is the ratio of the volume of CO2 produced (Vco2) to the volume of O2 consumed (Vo2). Heat is calculated with full body weight considered: VO2=FlowML*(V1+V2)/N2Ref*Animal weight*100) VCO2=FlowML*dCO2/Animal weight*100) Heat=(CVO2*VO2+CVCO2*VCO2)/1000; where CVO2=3.941; CVCO2=1.106

[2] = Weight loss, body composition and hepatic steatosis in DIO mice; format: in vivo, mouse; conditions: for Blood Glucose: Day 15
Summary of the method: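 C57/BL6 DIO mice, individually housed at 24 °C, 12 h light/dark, food and water ad libitum; daily body weight and food intake, weight change versus pre-dose value of the same animal. Day 15: tail-vein glucose, then liver triglycerides and plasma cholesterol; ANOVA with Dunnett's test, ED50 for weight loss by non-linear fit.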

[3] = Dose potency projection: rat ivGTT exposure response Emax model; format: in vivo; conditions: single SC dose, ivGTT 16 hours post-dosage
Method: The intravenous glucose tolerance test (ivGTT) in the rat is used to estimate relative potency of compounds of the present invention in comparison to semaglutide. […] Exposure is measured at the time of the ivGTT, and for exposure response modeling, the insulin AUC in response to the ivGTT is used as the primary endpoint. […] Both data sets are fit simultaneously and E0 and Emax values are constrained to be the same for both compounds. Only ED50 values are fit separately for the compounds.

[4] = Plasma corticosterone in Sprague Dawley rats; format: in vivo, rat
Method: Plasma corticosterone levels are evaluated using Sprague Dawley Rats (Harlan, Indianapolis), weighing approximately 220 g and acclimated for at least 72 hours before handling. The rats are then dosed with vehicle (20 mM citrate buffer, pH 7), semaglutide (10 nmol/kg), or compounds of the present invention at 3, 10 or 30 nmol/kg s.c. with 8 rats per dose group. The rats are decapitated 16 hours later. Blood is collected into EDTA tubes on ice, then centrifuged 5 minutes at 8000 RPM in a Eppendorf 5402 tabletop centrifuge. Plasma is stored at −80° C. until analysis.
For corticosterone analysis, corticosterone standards (Sigma, 27840) are prepared by serial dilutions in HPLC-grade methanol, H2O and the addition of 5% charcoal stripped rat serum (Bioreclamation, RATSRM-STRPD-HEV). Rat plasma samples are diluted with PBS, precipitated with cold methanol, incubated for 20 minutes at −20° C., and then centrifuged at 14,000 RPM with an Eppendorf 5417R at 4° C. Supernatants are extracted, evaporated under a stream of N2 gas, and reconstituted in MeOH/H2O (1:1) solution.

[5] = Rat in vivo insulin secretion following intravenous glucose (IVGTT); conditions: s.c. 16 hour prior to glucose
Summary of the method: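 Male Wistar rats dosed s.c. with vehicle or 0.1–10 nmol/kg 16 h before glucose, then fasted and anesthetized with pentobarbital i.p. (65 mg/kg). Glucose ([…]) given after a time-zero bleed; plasma sampled at 2, 4, 6, 10, 20, 30 min. Glucose measured by analyzer, insulin by MSD immunoassay.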

[6] = Gastric emptying in DIO mice; format: in vivo, mouse; conditions: 30 nmol/kg SC, semi-liquid diet, 2 hours
Method: The effects on gastric emptying in DIO mice for compounds of the present invention are evaluated in 23 week old diet-induced obese (DIO) male mice (Harlan). The mice are fasted for 16-17 hours. During the start of fasting period the mice are dosed subcutaneously with vehicle control (20 mM citrate buffer at pH 7.0); escalating doses of compounds of the present invention (3, 10, 30 and 100 nmol/kg), or a long-acting GLP1 analogue, semaglutide, (30 nmol/kg). The next day, mice are administered 0.5 ml (0.5 gram) of freshly prepared semi-liquid diet (2 minutes apart) by oral gavage. Water is removed at this time to prevent dilution of administered diet. Two hours after diet administration, mice are euthanized two minutes apart by CO2 gas. The stomach is removed while clamped at both cardiac and pyloric openings, then clamps removed and the full stomach weighed in a weigh boat. The stomach is then incised and contents removed. The stomach is washed and dried and re-weighed to assess food contents in stomach. The % gastric emptying equals 100×(1−(food remaining in stomach/food orally administered)).

Substance: semaglutide [reference compound]
- increase in metabolic rate compared to the control group [1]: no effect on metabolic rate
- % Change from starting body weight ([2]; Table 8, 10 nmol/kg): −12.36 ± 1.00 %
- % Change from starting fat mass ([2]; Table 8, 10 nmol/kg): −18.21 ± 2.24 %
- % Change from starting body weight ([2]; Table 8, 30 nmol/kg): −14.20 ± 1.01 %
- % Change from starting fat mass ([2]; Table 8, 30 nmol/kg): −21.90 ± 2.07 %
- % Change from starting body weight ([2]; Table 8, 100 nmol/kg): −19.30 ± 1.38 %
- % Change from starting fat mass ([2]; Table 8, 100 nmol/kg): −33.51 ± 3.30 %
- % Change from starting body weight ([2]; Table 9, 30 nmol/kg): −17.03 ± 0.98 %
- % Change from starting fat mass ([2]; Table 9, 30 nmol/kg): −35.94 ± 4.09 %
- Plasma Cholesterol ([2]; Table 11, 10 nmol/kg): 226.8 ± 13.86 mg/dL
- Plasma Triglycerides ([2]; Table 11, 10 nmol/kg): 27.36 ± 3.56 mg/dL
- Blood Glucose ([2]; Table 11, 10 nmol/kg): 147.6 ± 6.13 mg/dL
- Plasma Cholesterol ([2]; Table 11, 30 nmol/kg): 229.8 ± 10.96 mg/dL
- Plasma Triglycerides ([2]; Table 11, 30 nmol/kg): 27.9 ± 6.01 mg/dL
- Blood Glucose ([2]; Table 11, 30 nmol/kg): 146.8 ± 8.43 mg/dL
- Plasma Cholesterol ([2]; Table 11, 100 nmol/kg): 218.4 ± 18.70 mg/dL
- Plasma Triglycerides ([2]; Table 11, 100 nmol/kg): 36.46 ± 5.34 mg/dL
- Blood Glucose ([2]; Table 11, 100 nmol/kg): 134.3 ± 9.22 mg/dL
- Liver Triglycerides ([2]; Table 12, 30 nmol/kg): 67.63 ± 23.40 mg/g tissue
- Plasma Cholesterol ([2]; Table 12, 30 nmol/kg): 161.0 ± 13.92 mg/dL
- Blood Glucose ([2]; Table 12, 30 nmol/kg): 136.3 ± 3.81 mg/dL
- ED50 (Emax model, insulin AUC in ivGTT) [3]: 0.6 ± 0.2 nmol/kg
- Corticosterone, Mean ([4]; 10 nmol/kg s.c., 16 hours): 274.57 ng/mL
- increase in plasma corticosterone levels over control ([4]; Example 1 at 3, 10, 30 nmol/kg, semaglutide 10 nmol/kg): approximately 4 ×
- % max increase of insulin AUC [5]: 231 +/− 13%
- ED50 for insulin, rat IVGTT [5]: 0.70 nmol/kg
- Percent Gastric Emptying [6]: 30.56 +/− 7.53** %
